Measurements from US7605280B2, “Anthraquinone and its derivatives” (Biostatus Limited, priority 1998, dated 2009).
Where two headings read alike, the source gives them in different places. Values belong to the molecule of their own block, whether it stands above or below them.

Columns and labels:
[1] = tested on: human B cell lymphoma cell line; assay: Dual laser flow cytometry of DRAQ5NO with Annexin V-FITC (Cytometer D); assay type: cell-based; conditions: 50 μM DRAQ5NO, 633 nm excitation, FL4-H
Excerpt: The system was a FACS Vantage cell sorter (Becton Dickinson Inc., Cowley, UK) incorporating a Coherent Enterprise II laser simultaneously emitting at multiline UV (350-360 nm range) and 488 nm wavelengths with the beams made non-colinear using dichroic separators. Beam-combining optics were used to align the UV beam with that emitted by a Spectra Physics 127-35 helium-neon laser (max 35 mW output) emitting at 633 nm with a temporal separation of about 25 μsec from that of the primary 488 nm beam. Forward light scatter, 90° light scatter and fluorescence emissions were collected for 1×10^4 cells using the forward light scatter parameter as the master signal from the primary 488 nm beam, while side scatter was collected through a 488/10 nm bandpass filter. The analysis optics were: i) primary beam-originating signals analysed at FL1 (FITC filter; barrier filter of 530/30 nm) after transmission at SP610 and SP560 dichroics, or at FL2 (barrier filters of 585/42 nm or 575/26 nm) after transmission at SP610 and reflection at SP560 dichroics, or at FL3 (barrier filter of LP715 nm) after reflection at a SP610 dichroic; ii) delayed beam-originating signals analysed at FL4 (barrier filter of LP695 nm) or at FL5 (barrier filter of DF424/44 nm) after transmission or reflection at a LP640 dichroic respectively. Forward and 90° light scatter, were analysed to exclude any cell debris. […]

[2] = previously published spectra, normalised; cited from earlier work
[3] = Spectral analysis: absorbance and fluorescence spectra; assay type: physicochemical; conditions: DNA binding buffer, emission 530 nm
Protocol: Absorbance spectra were obtained using a Perkin-Elmer Lambda 16 UV spectrometer and a 10 μM solution of agent dissolved in dichloromethane and measured in a 1 cm path length quartz-silica cuvette. Fluorescence spectra for a 0.8 ml solution of 20 μM DRAQ5 in a 1 cm path length semi-micro quartz silica cuvette were determined by exciting at 647 nm wavelength or monitoring emission at 670 nm wavelength. Fluorescence measurements were made on a Perkin Elmer LS50 spectrofluorometer with slit widths set at 10 nm. The spectrofluorometer was equipped with a red-sensitive photomultiplier tube (PMT; type R928; Hamamatsu Photonics KK, Japan). Data were accumulated for four scans for each condition and exported into a spreadsheet program to correct values for the buffer control and to determine emission maxima. DNA-DRAQ5 fluorescence was measured by the addition of microlitre volumes of concentrated calf thymus DNA solutions to the cuvette with mixing. Both agent and DNA were prepared in DNA binding buffer (0.05 M sodium phosphate, pH 6.2, 0.05 M NaCl, 0.001 M EDTA; 3). The spectra shown were corrected for the buffer background and not for the spectral sensitivity of the PMT. Rhodamine 123 spectra were generated in DNA binding buffer using either 488/5 nm excitation or monitoring emission at 530/5 nm. […]

Molecule: C[N+](C)([O-])CCNc1ccc(O)c2c1C(=O)c1c(O)ccc(NCC[N+](C)(C)[O-])c1C2=O [DRAQ5N]
level of DRAQ5NO staining in stage 1 populations (intact viable cells) [1]: low level
level of DRAQ5NO staining in stage 3 cells (late stage apoptotic/dead cells) [1]: increased level

Molecule: Texas Red
Exλmax [2]: 596 nm

Molecule: fluorescein isothiocyanate [FITC]
Exλmax [2]: 490 nm

Exλmax [3]: 511 nm
Molecule: rhodamine 123
